This note sets out measurements from patent US5824771A, “Cyclic CRF agonists” (The Salk Institute for Biological Studies, priority 1997, dated 1998).

Experiment [1] deals with rat anterior pituitary cells. The experiment is described as follows: In vitro stimulation of ACTH and β-endorphin secretion by cultured rat pituitary cells, potency compared with oCRF (Standard) or r/hCRF. Particulars: for stimulation of secretion of ACTH and β-END-LI (testing by the general procedure), in words: general procedure of Example 1. The class given is cell-based. As for the experimental part:
The cyclic CRF agonists are examined for their effects on the secretion of ACTH and β-endorphin in vitro and also in vivo. […] In vivo testing is carried out using the general procedure set forth in C. Rivier et al., Science, 218, 377 (1982).

A short description of experiment [2]: Lowering of blood pressure on peripheral or iv administration. The class given is in vivo. The conditions noted are these: peripheral administration.

Bridge positions count the residues as written; N and C are the ends. Square brackets hold non-standard residues; d marks the D form. Peptide text beside a SMILES is read from it. Nle = CCCC[C@H](N)C(=O)O

For `CCCC[C@H](NC(=O)[C@H](CCC(=O)O)NC(=O)[C@H](CC(C)C)NC(=O)[C@H](CCCC)NC(=O)[C@H](CCC(=O)O)NC(=O)[C@H](CCCNC(=N)N)NC(=O)[C@H](CC(C)C)NC(=O)[C@H](CC(C)C)NC(=O)[C@H](Cc1c[nH]cn1)NC(=O)[C@@H](Cc1ccccc1)NC(=O)[C@@H](NC(=O)[C@H](CC(C)C)NC(=O)[C@H](CC(=O)O)NC(=O)[C@H](CC(C)C)NC(=O)[C@H](CO)NC(C)=O)[C@@H](C)O)C(=O)N[C@@H](C)C(=O)N[C@@H](CCCCN)C(=O)N[C@@H](C)C(=O)N[C@@H](CCC(=O)O)C(=O)N[C@@H](CCC(N)=O)C(=O)N[C@@H](CCC(=O)O)C(=O)N[C@@H](C)C(=O)N[C@@H](CCC(=O)O)C(=O)N[C@H]1CCC(=O)NCCCC[C@@H](C(=O)N[C@@H](CC(N)=O)C(=O)N[C@@H](CCCNC(=N)N)C(=O)N[C@@H](CC(C)C)C(=O)N[C@@H](CC(C)C)C(=O)N[C@@H](CC(C)C)C(=O)N[C@@H](CCC(=O)O)C(=O)N[C@@H](CCC(=O)O)C(=O)N[C@@H](C)C(N)=O)NC(=O)[C@@H](C)NC(=O)[C@H](C)NC1=O` [Example 16 A, (cyclo 30-33)[Ac-Ser^7, D-Phe^12, Nle^18,21, Glu^30, D-Ala^32, Lys^33]-AHC(7-41)] (Ac-SLDLT[dF]HLLRE[Nle]LE[Nle]AKAEQEAEEA[dA]KNRLLLEEA-NH2; lactam 24-27), the “stimulation of secretion of ACTH and β-END-LI (testing by the general procedure), in words” value (“stimulation” for short) in experiment [1] is “strongly stimulates the secretion of ACTH and β-END-LI”. In experiment [2], the “lowering of blood pressure when administered peripherally, in words” value (from here on “lowering of blood pressure”) is reported as “very significant lowering of blood pressure”.

`CCCC[C@H](NC(=O)[C@H](CCCCN)NC(=O)[C@H](CCCNC(=N)N)NC(=O)[C@H](CC(C)C)NC(=O)[C@H](CC(C)C)NC(=O)[C@H](CCC(=O)O)NC(=O)[C@@H](CC(C)C)NC(=O)[C@H](CO)NC(=O)[C@H](CC(C)C)NC(=O)[C@H](CC(=O)O)NC(=O)[C@@H](NC(=O)[C@H](CO)NC(C)=O)[C@@H](C)CC)C(=O)N[C@H](C(=O)N[C@@H](CCC(=O)O)C(=O)N[C@H](C(=O)N[C@@H](CCC(=O)O)C(=O)N[C@@H](CCCCN)C(=O)N[C@@H](CCC(N)=O)C(=O)N[C@@H](CCC(=O)O)C(=O)N[C@@H](CCCCN)C(=O)N[C@@H](CCC(=O)O)C(=O)N[C@@H](CCCCN)C(=O)N[C@@H](CCC(N)=O)C(=O)N[C@H]1CCC(=O)NCCCC[C@@H](C(=O)N[C@@H](CC(N)=O)C(=O)N[C@@H](CCCNC(=N)N)C(=O)N[C@@H](CC(C)C)C(=O)N[C@@H](CC(C)C)C(=O)N[C@@H](CC(C)C)C(=O)N[C@@H](CC(=O)O)C(=O)N[C@H](C(=O)N[C@H](C(N)=O)[C@@H](C)CC)[C@@H](C)O)NC(=O)[C@H](C)NC(=O)[C@H](C)NC1=O)[C@@H](C)CC)[C@@H](C)CC` [Example 16 C, (cyclo 29-32)[Ac-Ser^6, D-Leu^11, Nle^17, Glu^29, Lys^32]-sauvagine(6-40)] (Ac-SIDLS[dL]ELLRK[Nle]IEIEKQEKEKQEAAKNRLLLDTI-NH2; lactam 24-27): the “stimulation” value in experiment [1] was “stimulates the secretion of ACTH and β-END-LI”. Also, the “lowering of blood pressure” value in experiment [2] was “very significant lowering of blood pressure”.

With `CCCC[C@H](NC(=O)[C@H](CCCCN)NC(=O)[C@H](C)NC(=O)[C@H](CCCNC(=N)N)NC(=O)[C@H](Cc1c[nH]cn1)NC(=O)[C@@H](NC(=O)[C@H](CCCC)NC(=O)[C@H](CC(N)=O)NC(=O)[C@H](CCCNC(=N)N)NC(=O)[C@H](CC(C)C)NC(=O)[C@H](CCCC)NC(=O)[C@H](Cc1c[nH]cn1)NC(=O)[C@@H](Cc1ccccc1)NC(=O)[C@@H](NC(=O)[C@H](CC(C)C)NC(=O)[C@H](CC(=O)O)NC(=O)[C@@H](NC(=O)[C@H](CO)NC(C)=O)[C@@H](C)CC)[C@@H](C)O)[C@@H](C)CC)C(=O)N[C@@H](CCC(=O)O)C(=O)NCC(=O)N[C@@H](CCC(=O)O)C(=O)N[C@@H](CCCNC(=N)N)C(=O)N[C@@H](CCC(=O)O)C(=O)N[C@H]1CCC(=O)NCCCC[C@@H](C(=O)N[C@@H](CC(N)=O)C(=O)N[C@@H](CCCNC(=N)N)C(=O)N[C@@H](CC(N)=O)C(=O)N[C@@H](CC(C)C)C(=O)N[C@@H](CC(C)C)C(=O)N[C@@H](CC(=O)O)C(=O)N[C@@H](CCC(=O)O)C(=O)N[C@H](C(N)=O)C(C)C)NC(=O)[C@@H](Cc2c[nH]cn2)NC(=O)[C@H](C)NC1=O` [Example 16 E D-His^32 analog] (Ac-SIDLT[dF]H[Nle]LRN[Nle]IHRAK[Nle]EGEREEA[dH]KNRNLLDEV-NH2; lactam 24-27), in experiment [1] (compared with the Standard or with a named analog), the “in vitro biopotency, comparison in words” value is on record as “increases biopotency over that of the D-Leu^32 analog”. In experiment [1], the “stimulation” value was “stimulate the secretion of ACTH and β-END-LI”. In addition, the “lowering of blood pressure” value in experiment [2] is “very significant lowering of blood pressure”.

As for `CCCC[C@H](NC(=O)[C@H](CCCCN)NC(=O)[C@H](C)NC(=O)[C@H](CCCNC(=N)N)NC(=O)[C@H](Cc1c[nH]cn1)NC(=O)[C@@H](NC(=O)[C@H](CCCC)NC(=O)[C@H](CC(N)=O)NC(=O)[C@H](CCCNC(=N)N)NC(=O)[C@H](CC(C)C)NC(=O)[C@H](CCCC)NC(=O)[C@H](Cc1c[nH]cn1)NC(=O)[C@@H](Cc1ccccc1)NC(=O)[C@@H](NC(=O)[C@H](CC(C)C)NC(=O)[C@H](CC(=O)O)NC(=O)[C@@H](NC(=O)[C@H](CO)NC(C)=O)[C@@H](C)CC)[C@@H](C)O)[C@@H](C)CC)C(=O)N[C@@H](CCC(=O)O)C(=O)NCC(=O)N[C@@H](CCC(=O)O)C(=O)N[C@@H](CCCNC(=N)N)C(=O)N[C@@H](CCC(=O)O)C(=O)N[C@H]1CCC(=O)NCCCC[C@@H](C(=O)N[C@@H](CC(N)=O)C(=O)N[C@@H](CCCNC(=N)N)C(=O)N[C@@H](CC(N)=O)C(=O)N[C@@H](CC(C)C)C(=O)N[C@@H](CC(C)C)C(=O)N[C@@H](CC(=O)O)C(=O)N[C@@H](CCC(=O)O)C(=O)N[C@H](C(N)=O)C(C)C)NC(=O)[C@@H](CC(C)C)NC(=O)[C@H](C)NC1=O` [Example 16 E, (cyclo 30-33)[Ac-Ser^7, D-Phe^12, Nle^14,18,24, Glu^30, D-Leu^32, Lys^33]-maggy urotensin(7-41)] (Ac-SIDLT[dF]H[Nle]LRN[Nle]IHRAK[Nle]EGEREEA[dL]KNRNLLDEV-NH2; lactam 24-27), the “stimulation” value in experiment [1] was “stimulate the secretion of ACTH and β-END-LI”. Moreover, in experiment [2], the “lowering of blood pressure” value is “very significant lowering of blood pressure”.

Regarding `CCCC[C@H](NC(=O)[C@H](CCC(=O)O)NC(=O)[C@@H](NC(=O)[C@H](CCCC)NC(=O)[C@H](CC(N)=O)NC(=O)[C@H](CCCNC(=N)N)NC(=O)[C@H](CC(C)C)NC(=O)[C@H](CC(C)C)NC(=O)[C@H](Cc1c[nH]cn1)NC(=O)[C@@H](Cc1ccccc1)NC(=O)[C@@H](NC(=O)[C@H](CC(C)C)NC(=O)[C@H](CC(=O)O)NC(=O)[C@@H](NC(=O)[C@H](CO)NC(C)=O)[C@@H](C)CC)[C@@H](C)O)[C@@H](C)CC)C(=O)N[C@@H](C)C(=O)N[C@@H](CCCNC(=N)N)C(=O)N[C@@H](CC(N)=O)C(=O)N[C@@H](CCC(=O)O)C(=O)N[C@@H](CC(N)=O)C(=O)N[C@@H](CCC(N)=O)C(=O)N[C@@H](CCCNC(=N)N)C(=O)N[C@@H](CCC(=O)O)C(=O)N[C@H]1CCC(=O)NCCCC[C@@H](C(=O)N[C@@H](CC(N)=O)C(=O)N[C@@H](CCCNC(=N)N)C(=O)N[C@@H](CCCCN)C(=O)N[C@@H](Cc2ccc(O)cc2)C(=O)N[C@@H](CC(C)C)C(=O)N[C@@H](CC(=O)O)C(=O)N[C@@H](CCC(=O)O)C(=O)N[C@H](C(N)=O)C(C)C)NC(=O)[C@@H](C)NC(=O)[C@H](C)NC1=O` [Example 16 F, (cyclo 30-33)[Ac-Ser^7, D-Phe^12, Nle^18,21, Glu^30, D-Ala^32, Lys^33]-carp urotensin(7-41)] (Ac-SIDLT[dF]HLLRN[Nle]IE[Nle]ARNENQREEA[dA]KNRKYLDEV-NH2; lactam 24-27), the “stimulation” value in experiment [1] is “stimulate the secretion of ACTH and β-END-LI”. The “lowering of blood pressure” value in experiment [2] is reported as “very significant lowering of blood pressure”.

As for `CCCC[C@H](NC(=O)[C@H](CCCCN)NC(=O)[C@H](C)NC(=O)[C@H](CCCNC(=N)N)NC(=O)[C@H](Cc1c[nH]cn1)NC(=O)[C@@H](NC(=O)[C@H](CCCC)NC(=O)[C@H](CC(N)=O)NC(=O)[C@H](CCCNC(=N)N)NC(=O)[C@H](CC(C)C)NC(=O)[C@H](CCCC)NC(=O)[C@H](Cc1c[nH]cn1)NC(=O)[C@@H](Cc1ccccc1)NC(=O)[C@@H](NC(=O)[C@H](CC(C)C)NC(=O)[C@H](CC(=O)O)NC(=O)[C@@H](NC(=O)[C@H](CO)NC(C)=O)[C@@H](C)CC)[C@@H](C)O)[C@@H](C)CC)C(=O)N[C@@H](CCC(=O)O)C(=O)NCC(=O)N[C@@H](CCC(=O)O)C(=O)N[C@@H](CCCNC(=N)N)C(=O)N[C@@H](CCC(=O)O)C(=O)N[C@H]1CCC(=O)NCCCC[C@@H](C(=O)N[C@@H](CC(N)=O)C(=O)N[C@@H](CCCNC(=N)N)C(=O)N[C@@H](CC(N)=O)C(=O)N[C@@H](CC(C)C)C(=O)N[C@@H](CCCC)C(=O)N[C@@H](CC(=O)O)C(=O)N[C@@H](CCC(=O)O)C(=O)N[C@H](C(N)=O)C(C)C)NC(=O)[C@@H](CC(C)C)NC(=O)[C@H](C)NC1=O` [Example 16 G, (cyclo 30-33)[Ac-Ser^7, D-Phe^12, Nle^14,18,24,38, Glu^30, D-Leu^32, Lys^33]-sole urotensin(7-41)] (Ac-SIDLT[dF]H[Nle]LRN[Nle]IHRAK[Nle]EGEREEA[dL]KNRNL[Nle]DEV-NH2; lactam 24-27), the “stimulation” value in experiment [1] is “stimulate the secretion of ACTH and β-END-LI”. Also, in experiment [2], the “lowering of blood pressure” value is listed as “very significant lowering of blood pressure”.
